Assay results from patent publication US4450269A, “Mono-5-substituted-3-chloro-4H-1,2,6-thiadiazin-4-one antifungal agents” (FMC Corporation, priority 1980, dated 1984).
Counter-ions that a name gives are not always drawn.

Tests used:
[1] = system: Cladosporium cucumerinum; assay: Spore germination test; type: cell-based; conditions: CC, 48 hours
Experimental: CC = Cladosporium cucumerinum
The test chemical was dissolved or suspended in acetone in an amount such that 0.8 ml of the resulting suspension or solution, mixed with 40 ml water agar produced a water agar solution containing 40, 10, 2.5 and 1 ppm of test chemical. The resulting agar solution, at 50° C., was then divided equally between two sterile petri dishes, each having four separated quadrants, and allowed to solidify. […] quadrants of each dish were flooded with 0.1 ml of a spore suspension in sterile water. Spores of two pathogens, Erysiphe polygoni and Uromyes phaseoli, from infected plant leaves, were brushed on the remaining two quadrants. The tests were then incubated 48 hours, at 24° C.
Readings were then taken and the percentage of germinated spores calculated. From this percentage, a spore germination rating was assigned as follows: […]

[2] = system: Alternaria solani; assay: Mycelial growth test; type: cell-based; conditions: AS; for Percent Fungus Growth Inhibition: 72 hours; for inhibition at 5 ppm / inhibition at 10 ppm / inhibition at 20 ppm / inhibition at 40 ppm: Alternaria solani, 72 h, read-out: Percent Fungus Growth Inhibition

| Compound | Spore Germination Rating ([1]; 1.0 ppm) | Spore Germination Rating ([1]; 2.5 ppm) | Spore Germination Rating ([1]; 10 ppm) | Spore Germination Rating ([1]; 40 ppm) | Percent Fungus Growth Inhibition ([2]; 5 ppm) [%] | Percent Fungus Growth Inhibition ([2]; 10 ppm) [%] | Percent Fungus Growth Inhibition ([2]; 20 ppm) [%] | Percent Fungus Growth Inhibition ([2]; 40 ppm) [%] | inhibition at 5 ppm ([2]; 5 ppm) [%] | inhibition at 10 ppm ([2]; 10 ppm) [%] | inhibition at 20 ppm ([2]; 20 ppm) [%] | inhibition at 40 ppm ([2]; 40 ppm) [%] | Percent Fungus Growth Inhibition ([2]; 5 ppm, hydrochloride) [%] | Percent Fungus Growth Inhibition ([2]; 10 ppm, hydrochloride) [%] | Percent Fungus Growth Inhibition ([2]; 20 ppm, hydrochloride) [%] | Percent Fungus Growth Inhibition ([2]; 40 ppm, hydrochloride) [%] |
| --- | --- | --- | --- | --- | --- | --- | --- | --- | --- | --- | --- | --- | --- | --- | --- | --- |
| 3-chloro-5-(bromophenoxy)-4H-1,2,6-thiadiazin-4-one [Compound 33] | 0 (0-10) | 0 (0-10) | 0 (0-10) | 0 (0-10) | 100 | 100 | 100 | 100 | – | – | – | – | – | – | – | – |
| 3-chloro-5-[methylaminocarbonyloxy)phenoxyl]-4H-1,2,6-thiadiazin-4-one [Compound 36] | 4 (80-100) | 3 (60-80) | – | 0 (0-10) | 71 | 90 | 100 | 100 | – | – | – | – | – | – | – | – |
| O=c1c(Cl)nsnc1Oc1ccccc1 [Compound 2, 3-chloro-5-phenoxy-4H--1,2,6-thiadiazin-4-one] | 4 (80-100) | 4 (80-100) | 0 (0-10) | 0 (0-10) | – | – | – | – | 75 | 100 | 100 | 100 | – | – | – | – |
| Cc1ccc(Oc2nsnc(Cl)c2=O)cc1 [Compound 3, 3-chloro-5-(4-methylphenoxy)-4H--1,2,6-thiadiazin-4-one] | 4 (80-100) | 4 (80-100) | 0 (0-10) | 0 (0-10) | – | – | – | – | 19 | 63 | 100 | 100 | – | – | – | – |
| CC(C)(C)c1ccc(Oc2nsnc(Cl)c2=O)cc1 [Compound 4, 3-chloro-5-(4-tert-butylphnoxy)-4H--1,2,6-thiadiazin-4-one] | 4 (80-100) | 4 (80-100) | 0 (0-10) | 0 (0-10) | – | – | – | – | 13 | 13 | 0 | 17 | – | – | – | – |
| COc1ccc(Oc2nsnc(Cl)c2=O)cc1 [Compound 5, 3-chloro-5-(4-methoxyphenoxy)4H--1,2,6-thiadiazin-4-one] | 4 (80-100) | 4 (80-100) | 0 (0-10) | 0 (0-10) | – | – | – | – | 100 | 100 | 100 | 100 | – | – | – | – |
| CCCCOc1ccc(Oc2nsnc(Cl)c2=O)cc1 [Compound 6, 3-chloro-5-(4-n-butoxyphenoxy)-4H--1,2,6-thiadiazin-4-one] | 0 (0-10) | 0 (0-10) | 0 (0-10) | 0 (0-10) | – | – | – | – | 8 | 0 | 13 | 21 | – | – | – | – |
| CCOC(=O)c1ccc(Oc2nsnc(Cl)c2=O)cc1 [Compound 7, 3-chloro-5-(4-ethoxycarbonylphenoxy)-4H--1,2,6-thiadiazin-4-one] | 0 (0-10) | 0 (0-10) | 0 (0-10) | 1 (10-40) | – | – | – | – | 54 | 75 | 75 | 92 | – | – | – | – |
| CC(=O)Nc1ccc(Oc2nsnc(Cl)c2=O)cc1 [Compound 8, 5-(4-acetylaminophenoxy)-3-chloro-4H--1,2,6-thiadiazin-4-one] | 4 (80-100) | 3 (60-80) | 0 (0-10) | 0 (0-10) | – | – | – | – | 38 | 41 | 69 | 86 | – | – | – | – |
| O=c1c(Cl)nsnc1Oc1ccc([N+](=O)[O-])cc1 [Compound 9, 3-chloro-5-(4-nitrophenoxy)-4H--1,2,6-thiadiazin-4-one] | 0 (0-10) | 0 (0-10) | 0 (0-10) | 0 (0-10) | – | – | – | – | 31 | 63 | 100 | 100 | – | – | – | – |
| N#Cc1ccc(Oc2nsnc(Cl)c2=O)cc1 [Compound 10, 3-chloro-5-(4-cyanophenoxy)-4H--1,2,6-thiadiazin-4-one] | 0 (0-10) | 0 (0-10) | 0 (0-10) | 0 (0-10) | – | – | – | – | 54 | 79 | 92 | 92 | – | – | – | – |
| O=c1c(Cl)nsnc1Oc1ccc(F)cc1 [Compound 11, 3-chloro-5-(4-fluorophenoxy)-4H--1,2,6-thiadiazin-4-one] | 0 (0-10) | 0 (0-10) | 0 (0-10) | 0 (0-10) | – | – | – | – | 63 | 83 | 100 | 100 | – | – | – | – |
| O=c1c(Cl)nsnc1Oc1ccc(Cl)cc1 [Compound 12, 3-chloro-5-(4-chlorophenoxy)-4H--1,2,6-thiadiazin-4-one] | 2 (40-60) | 0 (0-10) | 0 (0-10) | 0 (0-10) | – | – | – | – | 31 | 31 | 63 | 100 | – | – | – | – |
| O=c1c(Cl)nsnc1Oc1cccc(Cl)c1 [Compound 13, 3-chloro-5-(3-chlorophenoxy)-4H--1,2,6-thiadiazin-4-one] | 2 (40-60) | 0 (0-10) | 0 (0-10) | 0 (0-10) | – | – | – | – | 45 | 59 | 86 | 100 | – | – | – | – |
| O=c1c(Cl)nsnc1Oc1ccccc1Cl [Compound 14, 3-chloro-5-(2-chlorophenoxy)-4H--1,2,6-thiadiazin-4-one] | 4 (80-100) | 0 (0-10) | 0 (0-10) | 0 (0-10) | – | – | – | – | 86 | 79 | 100 | 100 | – | – | – | – |
| O=c1c(Cl)nsnc1Oc1ccc(Br)cc1 [Compound 15, 3-chloro-5-(4-bromophenoxy)-4H--1,2,6-thiadiazin-4-one] | 0 (0-10) | 0 (0-10) | 0 (0-10) | 0 (0-10) | – | – | – | – | 54 | 66 | 66 | 75 | – | – | – | – |
| O=c1c(Cl)nsnc1Oc1ccc(Cl)c(Cl)c1 [Compound 16, 3-chloro-5-(3,4-dichlorophenoxy)-4H--1,2,6-thiadiazin-4-one] | 0 (0-10) | 0 (0-10) | 0 (0-10) | 0 (0-10) | – | – | – | – | 38 | 50 | 56 | 50 | – | – | – | – |
| O=c1c(Cl)nsnc1Oc1ccc(Cl)cc1Cl [Compound 17, 3-chloro-5-(2,4-dichlorophenoxy)-4H--1,2,6-thiadiazin-4-one] | 4 (80-100) | 0 (0-10) | 0 (0-10) | 0 (0-10) | – | – | – | – | 79 | 72 | 93 | 100 | – | – | – | – |
| Nc1ccc(Oc2nsnc(Cl)c2=O)cc1 [Compound 27, 5-(4-aminophenoxy)-3-chloro-4H--1,2,6-thiadiazine-4-one hydrochloride] | – | – | – | – | – | – | – | – | – | – | – | – | 47 | 73 | 80 | 87 |
